Experimental data as given in the supplement of paper PMC4862054.

What was measured:
Details in all cases: incubation time: 72 h
MDA-MB-453 [1] = assay: normalised viability (% of control), CellTiter-Blue; higher = more viable cells (100 = DMSO, 0 = benzethonium chloride kill control)
Protocol: (§1)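 DSRT, CellTiter-Blue viability, 72 h incubation. Signal is normalised to DMSO and benzethonium chloride controls. Value is the normalised response at dose 1.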

Hs578T [2] = assay: as above
Protocol: as §1

SK-BR-3 [3] = assay: as above
Protocol: as §1

HDQ-P1 [4] = assay: as above
Protocol: as §1

MDA-MB-436 [5] = assay: as above
Protocol: as §1

CAL-51 [6] = assay: as above
Protocol: as §1

HCC1143 [7] = assay: as above
Protocol: as §1

MDA-MB-468 [8] = assay: as above
Protocol: as §1

CAL-120 [9] = assay: as above
Protocol: as §1

CAL-85-1 [10] = assay: as above
Protocol: as §1

BT-474 [11] = assay: as above
Protocol: as §1

BT-549 [12] = assay: as above
Protocol: as §1

HCC1599 [13] = assay: as above
Protocol: as §1

HCC1937 [14] = assay: as above
Protocol: as §1

MFM-223 [15] = assay: as above
Protocol: as §1

CAL-148 [16] = assay: as above
Protocol: as §1

DU-4475 [17] = assay: as above
Protocol: as §1

MDA-MB-231 [18] = assay: as above
Protocol: as §1

MDA-MB-453 [19] = assay: normalised response (% of control), CellTiter-Glo; higher = more viable cells (100 = DMSO, 0 = benzethonium chloride kill control)
In short: (§2)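 Values are normalised signals, each belonging to one concentration of the series. Breast cancer cells (20 µl suspension) were seeded into 384-well plates with compound at 5 concentrations in 10-fold steps over a compound-specific 10,000-fold range and incubated 72 h. Readouts were CellTox Green fluorescence (485/520 nm), then CellTiter-Glo luminescence after 10 min at room temperature, with each plate set to 0.1 % DMSO as 100 and a positive kill control as 0.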

Hs578T [20] = assay: as above
In short: as §2

SK-BR-3 [21] = assay: as above
In short: as §2

HDQ-P1 [22] = assay: as above
In short: as §2

MDA-MB-436 [23] = assay: as above
In short: as §2

CAL-51 [24] = assay: as above
In short: as §2

HCC1143 [25] = assay: as above
In short: as §2

MDA-MB-468 [26] = assay: as above
In short: as §2

CAL-120 [27] = assay: as above
In short: as §2

CAL-85-1 [28] = assay: as above
In short: as §2

BT-474 [29] = assay: as above
In short: as §2

BT-549 [30] = assay: as above
In short: as §2

HCC1599 [31] = assay: as above
In short: as §2

HCC1937 [32] = assay: as above
In short: as §2

MFM-223 [33] = assay: as above
In short: as §2

CAL-148 [34] = assay: as above
In short: as §2

MCF-10A = assay: as above
In short: as §2

DU-4475 [35] = assay: as above
In short: as §2

MDA-MB-231 [36] = assay: as above
In short: as §2

Compound	normalised viability (MDA-MB-453 [1])	normalised viability (Hs578T [2])	normalised viability (SK-BR-3 [3])	normalised viability (HDQ-P1 [4])	normalised viability (MDA-MB-436 [5])	normalised viability (CAL-51 [6])	normalised viability (HCC1143 [7])	normalised viability (MDA-MB-468 [8])	normalised viability (CAL-120 [9])	normalised viability (CAL-85-1 [10])	normalised viability (BT-474 [11])	normalised viability (BT-549 [12])	normalised viability (HCC1599 [13])	normalised viability (HCC1937 [14])	normalised viability (MFM-223 [15])	normalised viability (CAL-148 [16])	normalised viability (DU-4475 [17])	normalised viability (MDA-MB-231 [18])	normalised response (MDA-MB-453 [19])	normalised response (Hs578T [20])	normalised response (SK-BR-3 [21])	normalised response (HDQ-P1 [22])	normalised response (MDA-MB-436 [23])	normalised response (CAL-51 [24])	normalised response (HCC1143 [25])	normalised response (MDA-MB-468 [26])	normalised response (CAL-120 [27])	normalised response (CAL-85-1 [28])	normalised response (BT-474 [29])	normalised response (BT-549 [30])	normalised response (HCC1599 [31])	normalised response (HCC1937 [32])	normalised response (MFM-223 [33])	normalised response (CAL-148 [34])	normalised response (MCF-10A)	normalised response (DU-4475 [35])	normalised response (MDA-MB-231 [36])
CCNC(=O)CCC/C=C\C[C@@H]1[C@@H](/C=C/[C@@H](O)CCc2ccccc2)[C@H](O)C[C@@H]1O [Bimatoprost] (0.55 nM)	102%	113%	117%	119%	111%	120%	99%	109%	91.6%	94.7%	110%	103%	115%	103%	94.9%	96.5%	111%	120%	108%	93.3%	85.8%	92.7%	98.5%	90.8%	92.6%	99.3%	95.8%	96.6%	95.8%	103%	88.5%	99.9%	94.3%	98.3%	91.1%	102%	101%
COc1cc(Nc2c(C#N)cnc3cc(OCCCN4CCN(C)CC4)c(OC)cc23)c(Cl)cc1Cl [Bosutinib] (1 nM)	113%	110%	106%	108%	113%	112%	94%	112%	84.3%	88.8%	116%	111%	103%	80.1%	93.1%	94.8%	105%	100%	101%	95.6%	104%	99.6%	96.6%	99.9%	93%	101%	92.6%	96.4%	98.8%	98.4%	112%	97.3%	99.3%	104%	99.9%	101%	93.1%
Cn1cc(C2=C(c3cn(C4CCN(Cc5ccccn5)CC4)c4ccccc34)C(=O)NC2=O)c2ccccc21 [Enzastaurin] (1 nM)	96.4%	98.2%	92.5%	107%	130%	114%	92.5%	99%	86.2%	86.3%	105%	113%	104%	97.2%	82.1%	98.9%	108%	87.5%	109%	105%	109%	96.8%	94.2%	61.3%	96.6%	104%	98.3%	105%	96.4%	102%	102%	96.9%	103%	104%	106%	101%	98.5%
